In the supplement of paper PMC11451515:

Assays:
Conditions in all cases: 48 h
NOMO1 [1] = test: cell viability relative to DMSO control; higher = less cytotoxic
Method in brief: (§1)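 Before seeding, each leukemia line was adapted for at least four passages in each medium. NOMO1 or SEM cells (500 cells/well) and P12-Ichikawa cells (1000 cells/well) went into 1536-well plates at 5 μl, then received library compounds in DMSO by pin dosing across 11 threefold concentrations, 47 μM to 0.79 nM. Readout was CellTiter-Glo One luminescence after 48 h at 37°C, and viability is given as a per-plate percentage of DMSO wells, with cell-free wells as background.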

P12-Ichikawa [2] = test: as above
Method in brief: as §1

SEM cells [3] = test: as above
Method in brief: as §1

NOMO1 [4] = test: AUC of viability dose-response curve (% viability x log10 dose units); higher = less sensitive
Method in brief: (§2)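 Leukemia cells adapted to each medium were seeded in 1536-well plates (500 or 1000 cells/well). They were dosed with library compounds in DMSO at 11 threefold doses, 47 μM to 0.79 nM, for 48 h at 37°C. CellTiter-Glo One luminescence was normalised per plate to DMSO and cell-free wells. Area under the curve was integrated by trapezoidal rule over log10 doses on a four-parameter log-logistic fit; curves exceeding full viability were scaled and curves failing quality control removed.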

P12-Ichikawa [5] = test: as above
Method in brief: as §2

SEM cells [6] = test: as above
Method in brief: as §2

[7] = HPLM + 10% dialyzed FBS, 0.000781 µM
[8] = HPLM + 10% dialyzed FBS, 0.00234 µM
[9] = HPLM + 10% dialyzed FBS, 0.00702 µM
[10] = HPLM + 10% dialyzed FBS, 0.0211 µM
[11] = HPLM + 10% dialyzed FBS, 0.0632 µM
[12] = HPLM + 10% dialyzed FBS, 0.19 µM
[13] = HPLM + 10% dialyzed FBS, 0.569 µM
[14] = HPLM + 10% dialyzed FBS, 1.71 µM
[15] = HPLM + 10% dialyzed FBS, 5.12 µM
[16] = HPLM + 10% dialyzed FBS, 15.4 µM
[17] = HPLM + 10% dialyzed FBS, 46.1 µM
[18] = RPMI 5 mM glucose + 10% FBS, 0.000781 µM
[19] = RPMI 5 mM glucose + 10% FBS, 0.00234 µM
[20] = RPMI 5 mM glucose + 10% FBS, 0.00702 µM
[21] = RPMI 5 mM glucose + 10% FBS, 0.0211 µM
[22] = RPMI 5 mM glucose + 10% FBS, 0.0632 µM
[23] = RPMI 5 mM glucose + 10% FBS, 0.19 µM
[24] = RPMI 5 mM glucose + 10% FBS, 0.569 µM
[25] = RPMI 5 mM glucose + 10% FBS, 1.71 µM
[26] = RPMI 5 mM glucose + 10% FBS, 5.12 µM
[27] = RPMI 5 mM glucose + 10% FBS, 15.4 µM
[28] = RPMI 5 mM glucose + 10% FBS, 46.1 µM
[29] = RPMI 5 mM glucose + 10% dialyzed FBS, 0.000781 µM
[30] = RPMI 5 mM glucose + 10% dialyzed FBS, 0.00234 µM
[31] = RPMI 5 mM glucose + 10% dialyzed FBS, 0.00702 µM
[32] = RPMI 5 mM glucose + 10% dialyzed FBS, 0.0211 µM
[33] = RPMI 5 mM glucose + 10% dialyzed FBS, 0.0632 µM
[34] = RPMI 5 mM glucose + 10% dialyzed FBS, 0.19 µM
[35] = RPMI 5 mM glucose + 10% dialyzed FBS, 0.569 µM
[36] = RPMI 5 mM glucose + 10% dialyzed FBS, 1.71 µM
[37] = RPMI 5 mM glucose + 10% dialyzed FBS, 5.12 µM
[38] = RPMI 5 mM glucose + 10% dialyzed FBS, 15.4 µM
[39] = RPMI 5 mM glucose + 10% dialyzed FBS, 46.1 µM
[40] = RPMI 5 mM glucose + 10% dialyzed FBS

CC(C)(C)NC(=O)[C@H]1CC[C@H]2[C@@H]3CC[C@H]4NC(=O)\C=C/[C@]4(C)[C@H]3CC[C@]12C
cell viability (NOMO1 [1]; [7]): 76.6% | cell viability (NOMO1 [1]; [8]): 94.6% | cell viability (NOMO1 [1]; [9]): 109% | cell viability (NOMO1 [1]; [10]): 108% | cell viability (NOMO1 [1]; [11]): 107% | cell viability (NOMO1 [1]; [12]): 99.8% | cell viability (NOMO1 [1]; [13]): 112% | cell viability (NOMO1 [1]; [14]): 84.3% | cell viability (NOMO1 [1]; [15]): 27.2% | cell viability (NOMO1 [1]; [16]): 26.8% | cell viability (NOMO1 [1]; [17]): 27.4% | cell viability (NOMO1 [1]; [18]): 101% | cell viability (NOMO1 [1]; [19]): 95.7% | cell viability (NOMO1 [1]; [20]): 102% | cell viability (NOMO1 [1]; [21]): 96.5% | cell viability (NOMO1 [1]; [22]): 96.6% | cell viability (NOMO1 [1]; [23]): 111% | cell viability (NOMO1 [1]; [24]): 109% | cell viability (NOMO1 [1]; [25]): 71% | cell viability (NOMO1 [1]; [26]): 20.9% | cell viability (NOMO1 [1]; [27]): 18.7% | cell viability (NOMO1 [1]; [28]): 14.5% | cell viability (NOMO1 [1]; [29]): 95.8% | cell viability (NOMO1 [1]; [30]): 105% | cell viability (NOMO1 [1]; [31]): 100% | cell viability (NOMO1 [1]; [32]): 107% | cell viability (NOMO1 [1]; [33]): 107% | cell viability (NOMO1 [1]; [34]): 108% | cell viability (NOMO1 [1]; [35]): 115% | cell viability (NOMO1 [1]; [36]): 102% | cell viability (NOMO1 [1]; [37]): 26.3% | cell viability (NOMO1 [1]; [38]): 25.2% | cell viability (NOMO1 [1]; [39]): 18.8% | cell viability (P12-Ichikawa [2]; [7]): 101% | cell viability (P12-Ichikawa [2]; [8]): 109% | cell viability (P12-Ichikawa [2]; [9]): 106% | cell viability (P12-Ichikawa [2]; [10]): 107% | cell viability (P12-Ichikawa [2]; [11]): 102% | cell viability (P12-Ichikawa [2]; [12]): 103% | cell viability (P12-Ichikawa [2]; [13]): 111% | cell viability (P12-Ichikawa [2]; [14]): 107% | cell viability (P12-Ichikawa [2]; [15]): 109% | cell viability (P12-Ichikawa [2]; [16]): 27.7% | cell viability (P12-Ichikawa [2]; [17]): 12.7% | cell viability (P12-Ichikawa [2]; [18]): 83.5% | cell viability (P12-Ichikawa [2]; [19]): 104% | cell viability (P12-Ichikawa [2]; [20]): 103% | cell viability (P12-Ichikawa [2]; [21]): 108% | cell viability (P12-Ichikawa [2]; [22]): 109% | cell viability (P12-Ichikawa [2]; [23]): 109% | cell viability (P12-Ichikawa [2]; [24]): 109% | cell viability (P12-Ichikawa [2]; [25]): 115% | cell viability (P12-Ichikawa [2]; [26]): 103% | cell viability (P12-Ichikawa [2]; [27]): 31.6% | cell viability (P12-Ichikawa [2]; [28]): 10.8% | cell viability (P12-Ichikawa [2]; [29]): 94.1% | cell viability (P12-Ichikawa [2]; [30]): 100% | cell viability (P12-Ichikawa [2]; [31]): 102% | cell viability (P12-Ichikawa [2]; [32]): 100% | cell viability (P12-Ichikawa [2]; [33]): 107% | cell viability (P12-Ichikawa [2]; [34]): 112% | cell viability (P12-Ichikawa [2]; [35]): 108% | cell viability (P12-Ichikawa [2]; [36]): 115% | cell viability (P12-Ichikawa [2]; [37]): 113% | cell viability (P12-Ichikawa [2]; [38]): 81.4% | cell viability (P12-Ichikawa [2]; [39]): 35.6% | cell viability (SEM cells [3]; [7]): 88.1% | cell viability (SEM cells [3]; [8]): 89.3% | cell viability (SEM cells [3]; [9]): 98.7% | cell viability (SEM cells [3]; [10]): 92% | cell viability (SEM cells [3]; [11]): 95.8% | cell viability (SEM cells [3]; [12]): 94.4% | cell viability (SEM cells [3]; [13]): 101% | cell viability (SEM cells [3]; [14]): 88.3% | cell viability (SEM cells [3]; [15]): 102% | cell viability (SEM cells [3]; [16]): 104% | cell viability (SEM cells [3]; [17]): 101% | cell viability (SEM cells [3]; [18]): 91.9% | cell viability (SEM cells [3]; [19]): 92.4% | cell viability (SEM cells [3]; [20]): 104% | cell viability (SEM cells [3]; [21]): 95.5% | cell viability (SEM cells [3]; [22]): 97.3% | cell viability (SEM cells [3]; [23]): 90.2% | cell viability (SEM cells [3]; [24]): 91.5% | cell viability (SEM cells [3]; [25]): 99.7% | cell viability (SEM cells [3]; [26]): 94% | cell viability (SEM cells [3]; [27]): 106% | cell viability (SEM cells [3]; [28]): 90.9% | cell viability (SEM cells [3]; [29]): 95.4% | cell viability (SEM cells [3]; [30]): 87.6% | cell viability (SEM cells [3]; [31]): 91.7% | cell viability (SEM cells [3]; [32]): 94.2% | cell viability (SEM cells [3]; [33]): 104% | cell viability (SEM cells [3]; [34]): 99.8% | cell viability (SEM cells [3]; [35]): 104% | cell viability (SEM cells [3]; [36]): 115% | cell viability (SEM cells [3]; [37]): 111% | cell viability (SEM cells [3]; [38]): 99.2% | cell viability (SEM cells [3]; [39]): 91.2% | AUC of viability dose-response curve (NOMO1 [4]; HPLM + 10% dialyzed FBS): 382 | AUC of viability dose-response curve (NOMO1 [4]; RPMI 5 mM glucose + 10% FBS): 365 | AUC of viability dose-response curve (NOMO1 [4]; [40]): 383 | AUC of viability dose-response curve (P12-Ichikawa [5]; HPLM + 10% dialyzed FBS): 421 | AUC of viability dose-response curve (P12-Ichikawa [5]; RPMI 5 mM glucose + 10% FBS): 421 | AUC of viability dose-response curve (P12-Ichikawa [5]; [40]): 450 | AUC of viability dose-response curve (SEM cells [6]; HPLM + 10% dialyzed FBS): 449 | AUC of viability dose-response curve (SEM cells [6]; RPMI 5 mM glucose + 10% FBS): 457 | AUC of viability dose-response curve (SEM cells [6]; [40]): 459
